Laboratory results from patent US20100247602A1, “METHOD OF REDUCING THE EFFECTS OF CYTOSTATIC DRUGS ON BONE MARROW DERIVED CELLS, AND METHODS OF SCREENING” (priority 2007, published 2010).
Entries after “also recorded” stand apart in the source; their conditions may differ.

Legend:
[1] = system: bone marrow derived cells (BMDCs); experiment: Proliferation assay of BMDCs (cell count with trypan blue); format: cell-based, mouse (C57BL/6 female mice); settings: for IC50: Mus musculus, BMDC, 168 h, one week treatment, cellular count, read-out: IC50 for cell growth
Procedure: (§1) BMDCs were cultured and isolated as described above.
After this time, cells were processed as described above.

[2] = system: bone marrow derived cells (BMDCs)
Description: Six-week old C57BL/6 female mice (Jackson Laboratoiries, Bar Harbor, Mass.) were used as bone marrow donors. The mice were euthanized by a ketamine hydrochloride (Bioniche, Belleville, ON) and xylazine (Rompum, Bayer's Inc, Toronto, ON) injections. Total bone marrow cells were collected from femurs and tibia, pooled, and washed twice with phosphate-buffered saline (PBS, Invitrogen corp., Carlsbad, Calif.) contained 2% fetal bovine serum (FBS, Hyclone Laboratories, Logan, Utah). All the bone marrow derived cells (BMDCs) were plated in 6-wells culture plates (Corning, Corning, N.Y.) precoated with rat fibronectin (Calbiochem, San Diego, Calif.), in Hematopoietic Growth Medium (HPGM Lonza, Walkersvelle, Md.) contained 2% fetal bovine serum (FBS, Hyclone Laboratories) and antibiotics (1% penicillin-streptomycin, Invitrogen corp.). Cells were grown in presence of 10 ng/mL platelet derived growth factor (PDGF, Peprotech. Inc, Rocky Hill, N.J.) and 10 ng/mL […] (EGF, Peprotech. Inc.) during the first 7 days. The experimental protocol was approved by the animal care committee of the Montreal Heart Institute.
BMDCs were cultured and isolated as described above. At day 7, complete culture medium was replaced by an incomplete culture medium: HPGM medium, 2% fetal bovine serum ([…] EGF and PDGF), and 1% antibiotics (penicillin and streptomycin) with or without E2 (10^−10 M to 10^−6 M) (Sigma) and/or rapamycin (10^−11M to 10^−6 M) (LC Laboratories, Woburn, Mass.) or paclitaxel (10^−11M to 10^−6 M) (LC laboratories) for another 7 days. In the case of combined treatment, the E2 was added 24 h prior the addition of the drug. First medium change was performed four days after plating and each following three days for a total of 14 days in culture.
After this treatment, the cells were removed from the 6-well culture plate using a 0.02% solution of (ethylenedinitrilo) tetraacetic acid (EDTA, Sigma) and diluted 1:1 in Trypan blue (Invitrogen corp.) before cell count with a hemacytometer (Hausser Bright-line). Total cells number, white cells and blue stained cells were counted. The proliferation rate was defined as the total number of cells over the number of cells at day 0 of the initiation of the treatment. The survival rate was defined as the number of white cells among the total cell population. The mortality rate was defined as the percentage of blue cells (dead cells) among the total cell population. […] The combination assay was achieved by a 24-hour pretreatment of BMDCs with different concentrations of E2 (10^−8 to 10^−10 M) and the drug was added at its IC50 concentration for a one week treatment. After this time, cells were processed as described above.

[3] = system: bone marrow derived cells (BMDCs); experiment: Necrosis and apoptosis levels (annexin V / propidium iodide flow cytometry); format: cell-based, mouse (C57BL/6 female mice); settings: for number of annexin V positive cells: drug at IC90 dose, 48 hrs
Procedure: After being cultured and isolated as described above, BMDCs were plated in 12-well culture plate. […] The cells were analyzed 24, 48 and 72 hours later after staining with FITC-conjugated annexin V (Alexis biochemical, San Diego, Calif.) and propidium iodide (PI, Sigma). Acquisition and analysis were performed on an Epics Altra cytometer as described in the section above “Analysis of the differentiation profile”.
In order to evaluate the effect of E2, paclitaxel or rapamycin on early apoptosis, late apoptosis and necrosis, BMDC were treated with either E2, paclitaxel or rapamycin and stained with annexin V and propodium iodine. Cells positive for annexin V only are considered in the early phases of apoptosis while cells positive for propodium iodine only are in necrosis. Cells which stained for both annexin V and propiodium iodine are in a more advanced apoptotic process (FIG. 6). The effect of E2 on the levels of apoptotic and necrotic cells in rapamycin or paclitaxel-treated cells was evaluated (FIG. 7)

ERβ = experiment: Western blot, ERβ expression in BMDCs / mBMPC; format: cell-based, mouse
Procedure: (§2) Membranes were stripped with Re-Blot Plus™ (International Chemicon) and total protein expression was determined with a goat polyclonal β-actin (1:1000 dilution, Santa Cruz Biotechnology Inc.).

[4] = system: bone marrow derived cells (BMDCs); experiment: Differentiation profile of BMDCs by flow cytometry; format: cell-based, mouse (C57BL/6 female mice); settings: for percentage of CD117+ cells: E2 alone (10^−9M) or in combination with paclitaxel (5×10^−9 M), one week; for total or sub-populations of CD44+ cells: one week treatment, paclitaxel 5×10^-9M, rapamycin 10^-10M, alone or in combination
Procedure: as §1
BMDCs were plated and grown during 7 days before treatment (stimulation). Rapamycin (LC Laboratories) or paclitaxel (LC laboratories) were added for a one week treatment at IC50 concentration. Afterward, cells were washed twice in PBS and non specific binding sites were blocked with 5% normal rat serum (Jackson Immunoresearch Laboratories Inc.). To evaluate the differentiation profile of the BMDCs, quadruple stainings were performed as follow: 1) for the HSC allophycocyanin (APC, Caltag Laboratories, Carlsbad, Calif.) conjugated monoclonal rat-anti-mouse CD117, fluorescein isothiocyanate (FITC, BD pharmingen, San Jose, Calif.) conjugated monoclonal rat anti-mouse CD31 (platelet endothelial cell adhesion molecules-1, PECAM), biotin conjugated monoclonal rat anti-mouse CD34 (Bio, BD pharmingen), growth factor receptor-2 (VEGFR2); and 2) for the stromal cells: APC (Abcam Inc., Cambridge Mass.) conjugated monoclonal rat anti-mouse CD90, FITC conjugated (BD pharmingen) monoclonal rat anti-mouse CD44 (hyaluronic acid receptor), PE conjugated monoclonal rat anti-mouse vascular cell adhesion molecule (V-CAM/CD106, Abcam Inc.), biotin (Abcam Inc.) conjugated monoclonal rat anti-mouse CD105 (Endoglin). Corresponding isotype antibodies were used as negative controls; monoclonal rat anti-mouse IgG2a-APC (Abcam Inc.), monoclonal rat anti-mouse IgG2a-FITC, (Abcam Inc.), monoclonal rat anti-mouse IgG2a-PE (BD pharmingen), monoclonal rat anti-mouse IgG2a-Bio (Abcam Inc.). To analyze the biotin conjugated antibody, a secondary antibody streptavidine-ECD (Beckman coulter, Fullerton, Calif.) was used. Data acquisition was performed using 1×10^6 events per sample. Of these events, only low-to-medium FSC (forward scattered channel) and SSC (side scattered channel) singlets were gated for analysis of BM subpopulations. In all cases, gated singlets represented 80 to 90% of acquired events. The acquisition and analysis were performed on an Epics Altra cytometer from Beckman using the EXPO™ 32 system ADC software (Beckman Coulter, Fullerton, Calif.).

[5] = system: ERα and ERβ expressed by BMDCs; experiment: Western blot, ratio of ERα expression over ERβ in BMDCs; format: cell-based, mouse (C57BL/6 female mice); settings: 24-hour stimulation, at 10^−8 and 10^−7M
Procedure: as §2

ERα = experiment: Western blot, ERα expression in BMDCs / mBMPC; settings: paclitaxel-treated cells, 24 h, 10^−8 and 10^−7M

C[C@]12CC[C@@H]3c4ccc(O)cc4CC[C@H]3[C@@H]1CC[C@@H]2O [E2, 17-beta-estradiol]
number of living cells ([1]; one-week treatment with a dose range of E2, compared to cells maintained in HPGM): not affected | dead cells (percentage of dead cells) [2]: not affected | reduction of mortality rate [2]: 7-11% | improvement of survival rate ([2]; 10^−10M E2 added to rapamycin or paclitaxel at IC50, one week, compared to cells treated with the drug only): about 30% | apoptotic and necrotic cells rates ([3]; 1 week incubation, alone or in combination with E2, flow cytometry): no appreciable differences | percentage of annexin V positive cells ([3]; E2 combined with rapamycin IC50, 48 hrs, compared to rapamycin IC50 alone): tended to reduce | blocking of the drug-induced (IC90) increase of annexin V positive cells ([3]; E2 combined with rapamycin or paclitaxel at IC90, 48 hrs stimulations): could not be blocked | regulation of ERβ expression (ERβ; mBMPC, 24-hour stimulation with various doses of E2 (not shown)): No regulation | percentage of CD117+ cells [4]: tended to increase; also recorded: increases | percentage of CD117+ cells ([4]; listed as Estradiol): increase | level (%) of CD117+ cells in paclitaxel-treated BMDCs ([4]; in the presence of E2 (24 h pre-treatment), paclitaxel 5×10^−9 M): higher level | total or sub-populations of CD44+ cells [4]: no effect | number of CD14+ cells ([4]; two weeks in culture including one week with various doses of E2): does not influence

CC(=O)O[C@H]1C(=O)[C@@]2(C)[C@H]([C@H](OC(=O)c3ccccc3)[C@]3(O)C[C@H](OC(=O)[C@H](O)[C@@H](NC(=O)c4ccccc4)c4ccccc4)C(C)=C1C3(C)C)[C@]1(OC(C)=O)CO[C@@H]1C[C@@H]2O [paclitaxel]
drop in ERα/ERβ ratio [5]: up to 50% | effect on proliferation at very low doses ([1]; BMDCs, one week, very low doses): proliferative effect | IC50 ([1]; BMDCs): 5 nM | mortality rate, drug alone [2]: not observed | toxicity on bone marrow derived cells [2]: toxic | number of annexin V positive cells [3]: increased significantly | ERβ expression (ERβ; paclitaxel-treated cells, 24 h, 10^−8 and 10^−7M): induction | total or sub-populations of CD44+ cells [4]: no effect | differentiation profile of CD117+ or CD44+ ([4]; one-week treatment at IC50 concentration): does not affect | ERα expression (ERα): decrease

CO[C@H]1C[C@@H]2CC[C@@H](C)[C@@](O)(O2)C(=O)C(=O)N2CCCC[C@H]2C(=O)O[C@H]([C@H](C)C[C@@H]2CC[C@@H](O)[C@H](OC)C2)CC(=O)[C@H](C)/C=C(\C)[C@@H](O)[C@@H](OC)C(=O)[C@H](C)C[C@H](C)/C=C/C=C/C=C/1C [rapamycin]
IC50 ([1]; BMDCs): 0.1 nM | mortality rate, drug alone [2]: significantly increased | toxicity on bone marrow derived cells [2]: toxic | number of annexin V positive cells [3]: increased significantly | total or sub-populations of CD44+ cells [4]: no effect
